# Several values for one entry are separate records, joined by “and”; a condition that tells them apart may be missing. Equal values may be shown once.
# How the values were obtained:
# [1] = Example 1: growth and feed efficiency of broiler cockerels fed thyroid-active substances with or without daily ncGH injection; assay type: in vivo, broiler cockerels (Ross X Arbor Acre strain)
# Text: (§1) The purpose of this study was to determine the effect manipulating blood levels of thyroid hormones and/or growth hormone on growth performance and body composition of broiler chickens. […] Purified natural chicken growth hormone (ncGH) was obtained from the Research and Education Center, Harbor-UCLA Medical Center, Torrance, Calif. […] The premix (200 g) was then used to prepare 50 kg batches of each experimental diet according to the formula for broiler-finisher ration described in Table 1. The diet containing 0.5% PTU was prepared by mixing 250 g of PTU into 49.75 kg of the basal ration (Table 1).
# (§2) Broiler cockerels (Ross X Arbor Acre strain) were raised to 3 weeks-of-age in a battery-brooder and then transferred to wire grow-out cages (4 birds/pen) held in two controlled-environment rooms (10 pens/room). Beginning at 3 weeks of age, eight birds (2 pens of 4 birds) were randomly assigned to each of 10 treatments. The chickens were provided the experimental diets and water ad libitum. […] For injection, the ncGH was reconstituted in sterile 0.025M sodium bicarbonate buffer (pH 9.8). The 10 treatments were administered for 21 days (i.e., from 3 to 6 weeks of age).
# (§3) Measurement of body weight and feed consumption at weekly intervals allowed calculation of the average daily gain (ADG, g/bird/day), average daily feed consumption (ADFC, g/bird/day) and the feed-to-gain ratio (FIG, kg feed/kg gain) over the 21 day experimental period. Blood samples were taken each week (4, 5, and 6 weeks) just before (pre-injection) and 4 hours post-injection of ncGH. […] At the conclusion of the study, birds were killed and the carcasses frozen for proximate analysis. The frozen carcasses were ground in a meat grinder and aliquots of each ground carcass taken for determination of moisture, protein, fat and ash by established analytical procedures (Official Method of Analysis, Edition 13, W. Horwitz ed., Association of Official Analytical Chemist, Washington, D.C., 1980). Body composition data are presented as a percent of live weight at 6 weeks-of-age. Least squares regression analysis was used to test for significant differences (P<0.05) due treatment.
# [2] = Example 1: body composition (proximate analysis of carcass); assay type: in vivo, broiler cockerels (Ross X Arbor Acre strain)
# Text: as §1, §2, §3
# [3] = Example 3: muscle protein turnover (14C-L-tyrosine infusion); assay type: in vivo, broiler cockerels
# Protocol: At week no. 7 (49 days-of-age), one-half of the birds (8 birds/treatment) were killed for measurement of the abdominal fat pad and liver weights. The muscles were removed, weighed, frozen in liquid N2 and stored at -20° C. until analyzed. At 51 days-of-age, groups of 4 birds per treatment were given a subcutaneous infusion of 4 μCi/Kg of 14C-L-tyrosine emulsified in sesame seed oil and immediately placed in metabolism cages. The expired CO2 was trapped in 15 ml of scrubbing solution (1:2 ethanolamine/methyl cellusolve) and the tubes were changed every 15 minutes for 90 minutes. At 90 minutes, the birds were removed from the metabolism cages and blood was obtained via cardiac puncture. Birds were then sacrificed by cervical dislocation and the muscles were removed, weighed, frozen in liquid N2 and stored at -20° C. until analyzed. Radioactivity in the samples containing trapped CO2 was counted for 10 minutes using a liquid scintillation spectrophotometer. At 54 days-of-age, groups of 4 birds per treatment were killed, the muscles were dissected, weighed, and frozen until analyzed.
# The right breast muscle, i.e. BM (Pectoralis major) and right leg muscles, i.e. LM (gastrocnemius and peroneus longus) were dissected out from the birds, weighed and immediately frozen in liquid nitrogen and stored at -20° C. until analyzed for tyrosine content as specific radioactivity of tyrosine. All muscle tissues were analyzed for protein content; only tissues from isotope experiments were analyzed for tyrosine content as specific radioactivity of tyrosine.
# FAR of breast muscle and leg muscles were estimated from regression of total muscle protein on age. Total muscle protein was determined by multiplying the muscle weight by protein content. Protein content was determined by the Biuret method. The slope obtained by linear regression was the absolute rate of protein accretion (g/d). The FAR (%/d) was calculated by dividing the absolute accretion rate by the average muscle protein at 51 days-of-age. The FSR (ks) was calculated according to the equation described by Garlick et al., Biochem. J. 136:935 (1973). Protein-bound tyrosine in muscle tissue was separated from free tyrosine according to the procedures of Laurent et al. Biochem. J. 176:419 (1978) with some modification. Approximately 1 g of muscle tissue was homogenized with 5 ml cold distilled water and washed with 15 ml of cold 5% trichloroacetic acid (TCA). The homogenate was then centrifuged for 15 min at 4000×g. The supernatant containing the free tyrosine was poured off and the TCA was extracted with 15 ml of diethyl ether. The supernatant was concentrated to dryness. The dried sample was dissolved in 5 ml of distilled water and stored at 4° C. until analyzed for tyrosine content and the specific radioactivity of tyrosine.
# The pellet was extracted with 15 ml of hot 5% TCA, 15 ml of 3:1 ethanol/diethyl ether (v/v) and 20 ml of diethyl ether. The washed pellet was then placed in a 25×150 mm test tube with screw cap and hydrolyzed in 15 ml of 6N hydrochloric acid (HCl) for 16 hours at 125° C. The hydrolysate was concentrated to dryness. The dried sample was dissolved in 5 ml of distilled water and stored at 4° C. until analyzed for tyrosine content and specific radioactivity of tyrosine.
# Tyrosine content in free tyrosine (supernatant) and the protein-bound fraction (hydrolysate) was analyzed according to the method of Udenfriend et al, J. Biol. Sci. 196:227 (1952).
# The specific radioactivity of tyrosine in the protein-bound fraction (hydrolysate) and in the free tyrosine (supernatant) was analyzed using the method described by Schaefer et al, Can. J. Anim. Sci. 62:1223 (1982). One ml of the samples were added into 10 ml of aquasol and counted for 10 minutes in a liquid scintillation spectrophotometer.
# [4] = Group 1, dietary, 6 weeks-of-age, N = 8
structure (smiles),measurement,setting,value
"N[C@@H](Cc1cc(I)c(Oc2ccc(O)c(I)c2)c(I)c1)C(=O)O [T3, 3,3',5-triiodo-L-thyronine]",BW (body weight),"[1]; 1 ppm T3, 1 ppm T4, 5 ppm TRH or 0.5% PTU in feed, 3 to 6 weeks of age, Group 1, mean ±SEM",1.70 ± .09 kg
same,effect on growth rate and feed efficiency,"[1]; Group 1, dietary",did not affect growth rate or feed efficiency
same,ADFC (average daily feed consumption),"[1]; Group 1, dietary, 21 days",101.1 ± 5.2 g/bird/day
same,ADG (average daily weight gain),"[1]; Group 1, dietary, 21 days",48.8 ± 4.3 g/bird/day
same,FTG (feed-to-gain ratio),"[1]; Group 1, dietary, 21 days",2.08 ± .08 kg feed/kg gain
same,Body composition: Ash,[2]; [4],2.19 ± .05 % BW
same,Body composition: Fat,[2]; [4],10.1 ± 1.2 % BW
same,Body composition: Protein,[2]; [4],18.4 ± .22 % BW
same,Body composition: Water,[2]; [4],68.6 ± 1.0 % BW
same,effect on fat deposition,[2]; finishing phase,decreases fat deposition in chickens
same,"body fat content, reduction",[2]; vs CF group,17%
same,"effect on body protein, water and ash",[2]; vs CF group,body protein and water were slightly increased
same,overall protein turnover rate of breast muscle,[3]; 0.25 ppm,did not differ from that of control birds
same,"protein accretion in breast and leg muscle, increase",[3]; 0.25 ppm,45-88%
same,"FAR, Leg muscles",[3]; 0.25 ppm of feed,9.3 %/d
same,"FAR, Pectoralis major (breast muscle)",[3]; 0.25 ppm of feed,4.9 %/d
same,"FRD (fractional degradation rate), Leg muscles",[3]; 0.25 ppm of feed,13.6 %/d
same,"FRD (fractional degradation rate), Pectoralis major",[3]; 0.25 ppm of feed,12.3 %/d
same,"FSR, Leg muscles",[3]; 0.25 ppm of feed,22.0 ± 2.1 %/d
same,"FSR, Pectoralis major",[3]; 0.25 ppm of feed,17.2 ± 1.3 %/d
same,"FAR of leg muscle, increase","[3]; 0.25 ppm, vs control group",45%
same,"FAR of pectoralis major (breast muscle), increase","[3]; 0.25 ppm, vs control group",88%
same,effect on protein synthesis rate in breast muscle,[3]; 0.25 to 1 ppm,only a slight effect upon protein synthesis rate in breast muscle
same,"FAR, Leg muscles",[3]; 1.0 ppm of feed,-2.0 %/d
same,"FAR, Pectoralis major (breast muscle)",[3]; 1.0 ppm of feed,-4.5 %/d
same,"FRD (fractional degradation rate), Leg muscles",[3]; 1.0 ppm of feed,24.1 %/d
same,"FRD (fractional degradation rate), Pectoralis major",[3]; 1.0 ppm of feed,22.7 %/d
same,"FSR, Leg muscles",[3]; 1.0 ppm of feed,22.1 ± 1.9 %/d
same,"FSR, Pectoralis major",[3]; 1.0 ppm of feed,18.2 ± 1.7 %/d
same,"fractional degradation rate of breast muscle, increase",[3]; 4 ppm,116%
same,"FSR of protein in breast muscle, increase",[3]; 4.0 ppm (p<0.05),55.7% and 56%
same,"FAR, Leg muscles",[3]; 4.0 ppm of feed,5.0 %/d
same,"FAR, Pectoralis major (breast muscle)",[3]; 4.0 ppm of feed,-3.8 %/d
same,"FRD (fractional degradation rate), Leg muscles",[3]; 4.0 ppm of feed,18.4 %/d
same,"FRD (fractional degradation rate), Pectoralis major",[3]; 4.0 ppm of feed,28.1 %/d
same,"FSR, Leg muscles",[3]; 4.0 ppm of feed,23.4 ± 0.8 %/d
same,"FSR, Pectoralis major",[3]; 4.0 ppm of feed,24.3 ± 1.4 %/d
same,accretion of certain muscle protein (particularly breast muscle),[3]; plasma thyroid hormone bioactivity 360-1200% of normal,decreased

# — US5168102A, “Endocrine manipulation to improve body composition of poultry” (priority 1990, dated 1992)
